The values that follow come from patent US12303489B2, “Combination treatment of arthritic disease” (SYNACT PHARMA APS, priority 2019, dated 2025).

The subject of data set [1] is MC1R. Particulars: cited from earlier work.
A short description of data set [2]: Phase I Part II: comparative bioavailability tablet vs. oral suspension. The data set is classed as in vivo, human (healthy volunteers). Particulars: 200 mg as two 100 mg tablets vs. 200 mg oral suspension, three-way cross-over.
The nature of data set [3]: Phase I Part IV: 14-day repeated dose pharmacokinetics, oral suspension. The data set is classed as in vivo, human (healthy volunteers). As to the method: FIG. 3: Plasma concentration following repeated oral dosing of test compound in healthy volunteers. […] Dose levels of test compound 1: 50, 100, 200 mg. Consecutive plasma samples were collected following the last day of dosing (day 14) and concentration in plasma determined by LCMS-MS. N=9 per dose level. Mean+/−SD per group.

For data set [4], the target named is MC1R (Homo sapiens, UniProt Q01726). The note with it: WO 2007/141343; cited from earlier work.
Data set [5] is described as follows: Phase I Part III: 14-day repeated dose pharmacokinetics, tablets. Particulars: tablets 100 mg daily (Group 1). The data set is classed as in vivo, human (healthy volunteers).
Source text: (§1) Fourteen days repeated dosing was initiated using a tablet formulation (Part III) and was completed (Part IV) using the suspension for oral administration.
A total of 111 subjects were randomized; 104 young healthy male volunteers and eight (8) post-menopausal women.
A short description of data set [6]: Phase I Part I: single ascending oral dose safety.
Source text: as §1
The two first male groups were composed of 3 subjects receiving active and one subject placebo; the other groups consisted of 6 subjects receiving active IMP and two subjects receiving placebo. Forty-eight (48) healthy male volunteers aged 19 to 39 years and eight (8) healthy postmenopausal female volunteers, aged 47 to 60 years were included.
The test system of data set [7] is MC3R. The note with it: induces ERK1/2-phosphorylation and Ca2+ mobilization; cited from earlier work.
Data set [8] can be described thus: Phase I Part I: single ascending oral dose pharmacokinetics (oral suspension). The data set is classed as in vivo, human (healthy volunteers). On the procedure:
FIG. 2: Plasma concentration following single oral dosing of test compound in healthy volunteers. […] Dose levels of test compound: 100, 200, 400, 600 or 800 mg. Consecutive plasma samples were collected and concentration in plasma determined by LCMS-MS. N=6 per dose level. Mean per group.

The subject of data set [9] is K/BxN serum induced arthritis in C57/BL6 mice. Kind of data set: K/BxN serum transfer arthritis, incidence of severe arthritis. Particulars: K/BxN serum i.p. days 0 and 2; 8 days study period; N=6; drug alone. The data set is classed as in vivo.
Procedure: Six week-old C57/BL6 mice were purchased from Charles River and left for one week for acclimatization before starting the experiment.
Arthritis was induced with two i.p. injections of 100 μl K/BxN serum on days 0 and 2 (for details see J Immunol 2015; 194:3381-3388).
Methotrexate and Veh2 (12.5% carbonate) were administered on days 3, 5 and 7 by i.p. injection (injected volume: 200 μl).
Preparation of methotrexate formulation: A small volume of 0.1M carbonate-bicarbonate buffer pH=9.6 was used to dissolve methotrexate (Sigma Cat no: A6770). Then, PBS was used to reach the desired concentration. […] Diluted compound was divided in single-use aliquots and stored at −20° C. until use.
The development of arthritis was monitored daily from day 0 to day 8.
Mice were sacrificed on day 8 after recording the daily measurements.
Visible signs of arthritis were assessed using the scoring method as described in Am J Pathol, 2014; 184(8):2333-41 consisting on assigning a score of 0-3 per paw, reaching a maximum of 12 per mouse: • Score 0: no signs of inflammation. • Score 1: subtle inflammation, localized. • Score 2: easily identified but localized. • Score 3: evident inflammation, not localized. […]
The incidence of severe arthritis was calculated as the % of mice in each group that reached a total score of 10.
The nature of data set [10]: Phase I Part IV: 14-day repeated dose safety, oral suspension.
Procedure: A Part IV was added to the study that was identical to Study Part III but conducted with the oral suspension in fasting conditions.
The dose levels tested were 50 mg, 100 mg or 200 mg with matching placebo (See FIG. 3).
The mark [11] stands for this setting: female post-menopausal subjects, single 400 mg oral suspension.
Where [12] appears, read: 50, 100 or 200 mg once daily for 14 days.

Sequence of MC1R (Homo sapiens, UniProt Q01726) (Q01726 whole entry, species assumed): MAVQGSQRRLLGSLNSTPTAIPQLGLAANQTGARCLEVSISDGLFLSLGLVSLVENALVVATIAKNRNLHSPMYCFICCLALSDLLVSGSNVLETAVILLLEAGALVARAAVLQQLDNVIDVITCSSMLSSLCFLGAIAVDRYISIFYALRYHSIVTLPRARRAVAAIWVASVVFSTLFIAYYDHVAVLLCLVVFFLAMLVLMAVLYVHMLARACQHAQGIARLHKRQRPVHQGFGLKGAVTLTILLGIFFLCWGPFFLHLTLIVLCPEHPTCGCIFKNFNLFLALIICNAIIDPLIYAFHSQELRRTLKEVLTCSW

Consider `CC(=O)O.N=C(N)N/N=C/C=C/c1cccn1-c1ccccc1[N+](=O)[O-]` [AP1189], for which the “activity at receptor MC1R” value in data set [1] (induces ERK1/2-phosphorylation and Ca2+ mobilization) was “biased dual agonist”. Also, the “canonical cAMP generation” value in data set [1] (receptors MC1R and MC3R, hence no MC1R-induced melanogenesis) is recorded as “does not provoke canonical cAMP generation”. Further, the “exposure of tablet compared to oral suspension” value in data set [2] is reported as “lower exposure with higher variability”. Besides, the “day steady state achieved” value in data set [3] (50 mg once daily oral suspension) turned out to be 7 days. Also, the “peak increase compared to cohort 1 (50 mg)” value in data set [3] (100 mg once daily oral suspension) is “approximately 2 fold”. In data set [3] (male, human, plasma, oral, 200 mg once daily, steady conditions, read-out: C Max (mean +/− SD, N = 9)), the Cmax stood at 893 ± 198 ng/mL. Further, the “binding to MC1R” value in data set [4] is reported as “shown to bind the MC1R”. Further, in data set [5], the “bioavailability within and between subjects” value is “high and unpredicted degree of bioavailability both within and between subjects”; the “exposure judged on Cmax, span” value is “from below the limit of quantification (BLQ) up to levels expected to be more than three times the exposure expected to induce therapeutic effects”. For the same compound, the “QTcF and other cardiac parameters” value in data set [6] (continuous 24-hours 1000 HZ Holter ECG recording, single dose) is “No AP1189 associated increases in QTcF”. For the same compound, the “increase in aminotransferases, above the normal upper value of ALT” value in data set [6] (male subjects, single dose 400, 600 or 800 mg) was “up to 1.6”. Besides, in [6] (male subjects, single dose (1 at 400 mg, 2 at 600 mg, 1 at 800 mg)), the “subjects with isolated increases in aminotransferases” value was 4 subjects. For the same compound, in data set [6] (single oral dose 15-800 mg), the “severe AEs / serious AEs” value is given as “No severe AEs nor serious AEs” and the “treatment-related changes in vital signs” value is reported as “No treatment-related changes in vital signs”. Also, in [6] (single oral dose up to 800 mg), the “maximum tolerated dose (MTD)” value is recorded as “not reached”. The “activity at receptor MC3R” value in [7] is “biased dual agonist”. For the same compound, in data set [8] (setting [11]), the “Cmax and AUCs compared to male subjects” value is recorded as “slightly increased”; the apparent clearance was 17.26 L/h; the “apparent volume of distribution compared to male subjects” value is given as “similar”. Moreover, the “inter-individual variability for Cmax and AUCs” value in data set [8] (male subjects, single oral suspension, dose range 50-800 mg, fasting) is reported as less than 36%. The “exposure at the maximum administrated dose (MAD) above expected exposure level for therapeutic efficacy” value in data set [8] (single oral dose, MAD) is “more than 10 ×”. In addition, the “incidence of severe arthritis (% of mice in each group that reached a total score of 10)” value in [9] came out at 50%. In data set [10] (setting [12]), the “QTcF in repeated standard 12 lead safety ECG” value is “No individual QTcF clinically significant values” and the “severe AEs / serious AEs” value is on record as “No severe AEs nor serious AEs”. Further, the “subjects treated with active with isolated increases in aminotransferases” value in data set [10] (Cohort 3, 200 mg once daily for 14 days) turned out to be 3 subjects. The “TEAEs considered possibly related to the study treatment” value in data set [10] (once daily for 14 days, 2 at 50 mg, 2 at 200 mg, gastrointestinal disorders) came to 4 events. For the same compound, the MTD result in data set [10] (up to 200 mg once daily for 14 days) was “not reached”.
For the compound `CN(Cc1cnc2nc(N)nc(N)c2n1)c1ccc(C(=O)N[C@@H](CCC(=O)O)C(=O)O)cc1` [methotrexate, reference compound], the “incidence of severe arthritis (% of mice in each group that reached a total score of 10)” value in data set [9] amounted to 50%.
